Experimental data taken from publication PMC11070402, “New antiproliferative 3-substituted oxindoles inhibiting EGFR/VEGFR-2 and tubulin polymerization” (Molecular Diversity, 2023).
Where two headings read alike, the source gives them in different places.

Experiments:
[1] = tested on: NCI-H23; experiment: NCI one-dose assay, NCI-H23; assay type: cell-based; settings: Homo sapiens; NCI-H23; 10 µM single dose, 48 h incubation; read-out: cell growth inhibition % (GI %)
Method: (§1) All novel scaffolds 6a–j were carefully selected by the National Cancer Institute (NCI), Bethesda, USA, to elucidate their cytotoxic activity versus 60 human cancer cell lines at 10 µM as a single-dose concentration after a 48 h incubation period.
(§2) National Cancer Institution selected all the synthesized 6a–j (NCI), Bethesda, USA, for in vitro one-dose antitumor assay. The methodology protocol for the NCI anticancer screening was reported in detail elsewhere (http://www.dtp.nci.nih.gov). The anticancer assay was performed in full NCI 60 cell lines extracted from nine tumor cell lines, including leukemia, melanoma, lung, colon, CNS, ovarian, renal, prostate, and breast cancer cell lines.

[2] = tested on: A549/ATCC; experiment: NCI one-dose assay, A549/ATCC; assay type: cell-based; settings: Homo sapiens, 10 µM single dose, 48 h incubation, read-out: cell growth inhibition % (GI %)
Method: as §1, §2

[3] = tested on: MOLT-4; experiment: NCI one-dose assay, MOLT-4; assay type: cell-based; settings: Homo sapiens; MOLT-4; 10 µM single dose, 48 h incubation; read-out: cell growth inhibition % (GI %)
Method: as §1, §2

[4] = tested on: UO-31; experiment: NCI one-dose assay, UO-31; assay type: cell-based; settings: Homo sapiens; UO-31; 10 µM single dose, 48 h incubation; read-out: cell growth inhibition % (GI %)
Method: as §1, §2

[5] = tested on: K-562; experiment: NCI one-dose assay, K-562; assay type: cell-based; settings: Homo sapiens, K562; K-562; 10 µM single dose, 48 h incubation; read-out: cell growth inhibition % (GI %)
Method: as §1, §2

[6] = tested on: 60 human cancer cell lines; experiment: NCI one-dose assay against sixty NCI cancer cell lines; assay type: cell-based
Method: as §1, §2

[7] = tested on: Human Skin Fibroblasts (HSF) cells; experiment: Margin of safety: cytotoxicity on human skin fibroblasts (SRB assay); assay type: cell-based; settings: Human Skin Fibroblasts, SRB assay, 72 h exposure, read-out: HSF (IC50 ± SD)
Method: Cell viability was assessed via SRB assay. Aliquots of 100 µl cell suspension (5 × 10^3 cells) were in 96-well plates and incubated in a complete media for 24 h. […] After 72 h of drug exposure, cells were fixed by replacing media with 150 µl of 10% TCA and incubated at 4 °C for 1 h. The TCA solution was removed, and the cells were washed 5 times with distilled water. Aliquots of […] SRB solution (0.4 w/v) were added and incubated in a dark place at room temperature for 10 min. Plates were washed 3 times with 1% acetic acid and allowed to air-dry overnight. Then, 150 µl of TRIS (10 mM) was added to dissolve the protein-bound SRB stain; the absorbance was measured at 540 nm using a BMG LAB TECH®-FLUO star Omega microplate reader (Ortenberg, Germany).

[8] = tested on: SR; experiment: NCI one-dose assay, SR; assay type: cell-based; settings: Homo sapiens; SR; 10 µM single dose, 48 h incubation; read-out: cell growth inhibition % (GI %)
Method: as §1, §2

[9] = tested on: SK-MEL-5; experiment: NCI one-dose assay, SK-MEL-5; assay type: cell-based; settings: Homo sapiens; SK-MEL-5; 10 µM single dose, 48 h incubation; read-out: cell growth inhibition % (GI %)
Method: as §1, §2

[10] = tested on: SNB-75 cells (CNS cancer cell line); experiment: NCI one-dose assay, SNB-75; assay type: cell-based; settings: Homo sapiens; SNB-75 (CNS Cancer), 10 uM single dose; read-out: Growth inhibition %
Method: as §1, §2

[11] = tested on: LOX IMVI; experiment: NCI one-dose assay, LOX IMVI; assay type: cell-based; settings: Homo sapiens; LOX IMVI; 10 µM single dose, 48 h incubation; read-out: cell growth inhibition % (GI %)
Method: as §1, §2

[12] = tested on: T-47D; experiment: NCI one-dose assay, T-47D; assay type: cell-based; settings: Homo sapiens, T47D; T-47D; 10 µM single dose, 48 h incubation; read-out: cell growth inhibition % (GI %)
Method: as §1, §2

[13] = tested on: MCF-7 (human breast cancer); experiment: Cytotoxicity versus MCF-7 cell line (MTT assay); settings: MCF7, read-out: MCF-7 (IC50 ± SD, uM)
Method: IC50 values were recorded using the Boltzman sigmoidal concentration–response curve equation using the nonlinear regression fitting models by GraphPad, Prism version 5 (GraphPad Software Inc., La Jolla, CA). MTT assay for MCF-7 cell lines. Cell line cells were obtained from American Type Culture Collection. Cells were cultured using DMEM media (Invitrogen/Life Technologies) supplemented with 10% FBS (Hyclone), 10 ug/ml of insulin (Sigma), and 1% penicillin–streptomycin. All the other chemicals and reagents were purchased from Sigma or Invitrogen. Cells were seeded in plates (cells density 1.2–1.8 × 10,000 cells/well) in a volume of 100 μl full-growth medium + 100 μl of the tested scaffold per well in a 96-well plate for 24 h before the application of the MTT assay protocol as reported, supplementary information.

[14] = tested on: HOP-92 (non-small cell lung cancer cell line); experiment: NCI one-dose assay, HOP-92; assay type: cell-based; settings: Homo sapiens; HOP-92 (Non-Small Cell Lung Cancer), 10 uM single dose; read-out: Growth inhibition %
Method: as §1, §2

[15] = tested on: MCF-7; experiment: NCI one-dose assay, MCF-7; assay type: cell-based, human; settings: MCF-7, 10 µM single dose, 48 h incubation
Method: as §1, §2

## O=C1Nc2ccccc2C1=Cc1ccc(OCC(=O)c2ccc(Br)cc2)cc1 [Compound 6f, 3-{4-[2-(4-Bromophenyl)-2-oxoethoxy]benzylidene}indolin-2-one]
[1]
  inhibition at 10 µM: 49.1%
[2]
  inhibition at 10 µM: 41.6%
[3]
  inhibition at 10 µM: 91.5%
[4]
  inhibition at 10 µM: 51.5%
[5]
  inhibition at 10 µM: 72.2%
[6]; 786-0 (Renal Cancer), 10 uM single dose, read-out: Growth inhibition %
  inhibition at 10 µM: 10.2%
[6]; ACHN (Renal Cancer), 10 uM single dose, read-out: Growth inhibition %
  inhibition at 10 µM: 30%
[6]; BT-549 (Breast Cancer), 10 uM single dose, read-out: Growth inhibition %
  inhibition at 10 µM: 43.4%
[6]; CAKI-1 (Renal Cancer), 10 uM single dose, read-out: Growth inhibition %
  inhibition at 10 µM: 32.2%
[6]; CCRF-CEM (Leukemia), 10 uM single dose, read-out: Growth inhibition %
  inhibition at 10 µM: 41.8%
[6]; COLO 205 (Colon Cancer), 10 uM single dose, read-out: Growth inhibition %
  inhibition at 10 µM: 34.1%
[6]; DU-145 (Prostate Cancer), 10 uM single dose, read-out: Growth inhibition %
  inhibition at 10 µM: 14.4%
[6]; EKVX (Non-Small Cell Lung Cancer), 10 uM single dose, read-out: Growth inhibition %
  inhibition at 10 µM: 34.4%
[6]; HCC-2998 (Colon Cancer), 10 uM single dose, read-out: Growth inhibition %
  inhibition at 10 µM: 14.9%
[6]; HCT-15 (Colon Cancer), 10 uM single dose, read-out: Growth inhibition %
  inhibition at 10 µM: 54.6%
[6]; HCT-116 (Colon Cancer), 10 uM single dose, read-out: Growth inhibition %
  inhibition at 10 µM: 44.6%
[6]; HL-60(TB) (Leukemia), 10 uM single dose, read-out: Growth inhibition %
  inhibition at 10 µM: 59.6%
[6]; HS 578T (Breast Cancer), 10 uM single dose, read-out: Growth inhibition %
  inhibition at 10 µM: 15.6%
[6]; HT-29, HT29 (Colon Cancer), 10 uM single dose, read-out: Growth inhibition %
  inhibition at 10 µM: 17.2%
[6]; IGROV-1, IGROV1 (Ovarian Cancer), 10 uM single dose, read-out: Growth inhibition %
  inhibition at 10 µM: 21.7%
[6]; KM12 (Colon Cancer), 10 uM single dose, read-out: Growth inhibition %
  inhibition at 10 µM: 22.7%
[6]; M14 (Melanoma), 10 uM single dose, read-out: Growth inhibition %
  inhibition at 10 µM: 26.9%
[6]; MALME-3M (Melanoma), 10 uM single dose, read-out: Growth inhibition %
  inhibition at 10 µM: 19%
[6]; MDA-MB-231, read-out: Growth inhibition %
  inhibition at 10 µM: 17.8%
[6]; MDA-MB-435 (Melanoma), 10 uM single dose, read-out: Growth inhibition %
  inhibition at 10 µM: 29.5%
[6]; MDA-MB-468 (Breast Cancer), 10 uM single dose, read-out: Growth inhibition %
  inhibition at 10 µM: 47.6%
[6]; NCI-H226 (Non-Small Cell Lung Cancer), 10 uM single dose, read-out: Growth inhibition %
  inhibition at 10 µM: 28.4%
[6]; NCI-H322M (Non-Small Cell Lung Cancer), 10 uM single dose, read-out: Growth inhibition %
  inhibition at 10 µM: 12.5%
[6]; NCI-H460 (Non-Small Cell Lung Cancer), 10 uM single dose, read-out: Growth inhibition %
  inhibition at 10 µM: 41.5%
[6]; NCI-H522 (Non-Small Cell Lung Cancer), 10 uM single dose, read-out: Growth inhibition %
  inhibition at 10 µM: 38.6%
[6]; OVCAR-3 (Ovarian Cancer), 10 uM single dose, read-out: Growth inhibition %
  inhibition at 10 µM: 22.5%
[6]; OVCAR-4 (Ovarian Cancer), 10 uM single dose, read-out: Growth inhibition %
  inhibition at 10 µM: 41.8%
[6]; OVCAR-8 (Ovarian Cancer), 10 uM single dose, read-out: Growth inhibition %
  inhibition at 10 µM: 30.4%
[6]; PC-3 (Prostate Cancer), 10 uM single dose, read-out: Growth inhibition %
  inhibition at 10 µM: 37.6%
[6]; RPMI-8226 (Leukemia), 10 uM single dose, read-out: Growth inhibition %
  inhibition at 10 µM: 50.8%
[6]; RXF 393 (Renal Cancer), 10 uM single dose, read-out: Growth inhibition %
  inhibition at 10 µM: 32.4%
[6]; SF-295 (CNS Cancer), 10 uM single dose, read-out: Growth inhibition %
  inhibition at 10 µM: 41.4%
[6]; SF-539 (CNS Cancer), 10 uM single dose, read-out: Growth inhibition %
  inhibition at 10 µM: 18.5%
[6]; SK-MEL-2 (Melanoma), 10 uM single dose, read-out: Growth inhibition %
  inhibition at 10 µM: 27.6%
[6]; SK-MEL-28 (Melanoma), 10 uM single dose, read-out: Growth inhibition %
  inhibition at 10 µM: 19.9%
[6]; SN12C (Renal Cancer), 10 uM single dose, read-out: Growth inhibition %
  inhibition at 10 µM: 37.3%
[6]; SNB-19 (CNS Cancer), 10 uM single dose, read-out: Growth inhibition %
  inhibition at 10 µM: 20.4%
[6]; SW-620 (Colon Cancer), 10 uM single dose, read-out: Growth inhibition %
  inhibition at 10 µM: 21.9%
[6]; U-251, U251 (CNS Cancer), 10 uM single dose, read-out: Growth inhibition %
  inhibition at 10 µM: 28.5%
[6]; UACC-62 (Melanoma), 10 uM single dose, read-out: Growth inhibition %
  inhibition at 10 µM: 47.4%
[6]; UACC-257 (Melanoma), 10 uM single dose, read-out: Growth inhibition %
  inhibition at 10 µM: 26.4%
[7]; Homo sapiens, HSF, 72 h
  IC50: 19.4 µM
[7]
  IC50: 19.4 ± 1.17 µM
[8]
  inhibition at 10 µM: 63.7%
[9]
  inhibition at 10 µM: 71.1%
[10]
  inhibition at 10 µM: 20.4%
[11]
  inhibition at 10 µM: 71.1%
[12]
  inhibition at 10 µM: 53%
[13]
  IC50: 14.8 ± 0.47 µM
[14]
  inhibition at 10 µM: 24.5%
[15]; Homo sapiens, MCF7, 48 h, read-out: cell growth inhibition % (GI %)
  inhibition at 10 µM: 72.6%
[15]
  cell growth inhibition % (GI %): 70.30%
